The text below walks through data of PMC11626117 (Proceedings of the National Academy of Sciences of the …, 2024).

Test [1] concerns the target T1, CoaA (Mycobacterium tuberculosis, UniProt P9WPA7).
Test [2] deals with T1, CoaA. Briefly: ADP-Glo luminescent kinase assay. In kind it is biochemical. The following applies: 5 mM ATP, 50 mM HEPES, 25 mM KCl, 20 mM MgCl2, 30 min. A general note: In ADP-Glo the light output rises with the ADP produced.

Molecules are shown by their SMILES.

T1 sequence (P9WPA7 whole entry, looked up): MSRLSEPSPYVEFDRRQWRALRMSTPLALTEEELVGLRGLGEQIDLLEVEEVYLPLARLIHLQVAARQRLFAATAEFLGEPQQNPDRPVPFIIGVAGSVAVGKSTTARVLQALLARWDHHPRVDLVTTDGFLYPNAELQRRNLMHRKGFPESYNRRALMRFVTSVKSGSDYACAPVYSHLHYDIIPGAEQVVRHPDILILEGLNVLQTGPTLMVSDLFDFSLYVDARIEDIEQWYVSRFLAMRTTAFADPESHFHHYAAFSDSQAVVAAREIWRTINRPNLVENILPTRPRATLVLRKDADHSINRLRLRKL

For `Nc1ncnc2c1ncn2[C@@H]1O[C@H](COP(=O)(O)OP(=O)(O)OP(=O)(O)O)[C@@H](O)[C@H]1O` [ATP], at CoaA [1], the “ADP-Glo luminescent kinase assay” value was “CoaA showed robust ATPase activity”.
With `CC(C)(CO)[C@@H](O)C(=O)NCCC(=O)O` [pantothenate], at CoaA [2], the “Michaelis-Menten curve, constant not given” value was “CoaA showed robust ATPase activity”.
